Activity calls are given as the source filed them. The calls are words filed in the database; no cut-off is given here.
Columns and labels:
[1] = Cytotoxicity against mouse BMDM cells assessed as reduction in cell viability at >10 uM incubated for 24 hrs by CCK-8 assay; assay type: toxicity, cell-based
[2] = test system: BMDM; assay: Induction of macrophage repolarization in FR-beta expressing IL-4 differentiated M2 phenotype mouse BMDM cells assessed as reprogramming to M1 phenotype by measuring upregulation of iNOS expression at 10 nM incubated for 24 hrs by western blot analysis; assay type: functional, cell-based
[3] = test system: BMDM; assay: Induction of macrophage repolarization in FR-beta expressing IL-4 differentiated M2 phenotype mouse BMDM cells assessed as reprogramming to M1 phenotype by measuring upregulation of TLR7 expression at 10 nM incubated for 24 hrs by western blot analysis; assay type: functional, cell-based
[4] = test system: BMDM; assay: Induction of macrophage repolarization in FR-beta expressing IL-4 differentiated M2 phenotype mouse BMDM cells assessed as reprogramming to M1 phenotype by measuring upregulation of IL-6 level at 10 nM incubated for 24 hrs by ELISA; assay type: functional, cell-based
[5] = Toxicity against BALB/c mouse xenografted with mouse 4T1 cells assessed as decrease in body weight at 0.333 mg/kg, iv qd for 14 days and measured every day; assay type: organism-based; conditions: in vivo, 336 h, time 14 day
[6] = test system: HUVEC; assay: Cytotoxicity against human HUVEC cells assessed as reduction in cell viability at >10 uM incubated for 24 hrs by CCK-8 assay; assay type: toxicity, cell-based
[7] = test system: BMDM; assay: Induction of macrophage repolarization in FR-beta expressing IL-4 differentiated M2 phenotype mouse BMDM cells assessed as reprogramming to M1 phenotype by measuring downregulation of CD206 expression at 10 nM incubated for 24 hrs by western blot analysis; assay type: functional, cell-based
[8] = test system: BMDM; assay: Induction of macrophage repolarization in FR-beta expressing IL-4 differentiated M2 phenotype mouse BMDM cells assessed as reprogramming to M1 phenotype by measuring downregulation of Arg1 expression at 10 nM incubated for 24 hrs by western blot analysis; assay type: functional, cell-based
[9] = test system: BMDM; assay: Induction of macrophage repolarization in FR-beta expressing IL-4 differentiated M2 phenotype mouse BMDM cells assessed as reprogramming to M1 phenotype by measuring upregulation of iNOS mRNA expression at 10 nM incubated for 24 hrs by RT-qPCR analysis; assay type: functional, cell-based
[10] = Toxicity against BALB/c mouse assessed as increase in IL-6 level in plasma at 20 ug, iv measured after 2 hrs by ELISA; assay type: organism-based; conditions: in vivo, dose 20 µg
[11] = test system: 4T1; assay: Antitumor activity against mouse 4T1 cells xenografted in BALB/c mouse assessed as lifespan of animal's survival at 0.333 mg/kg, iv qd for 14 days; assay type: functional; conditions: time 14 day
[12] = test system: BMDM; assay: Induction of macrophage repolarization in FR-beta expressing IL-4 differentiated M2 phenotype mouse BMDM cells assessed as reprogramming to M1 phenotype by measuring TNF-alpha mRNA expression at 10 nM incubated for 24 hrs by RT-qPCR analysis; assay type: functional, cell-based
[13] = Toxicity against BALB/c mouse xenografted with mouse 4T1 cells assessed as heightened inflammatory response in lung at 0.333 mg/kg, iv qd for 14 days by Hematoxylin-Eosin staining based analysis; assay type: organism-based; conditions: in vivo, 336 h, time 14 day
[14] = test system: BMDM; assay: Induction of macrophage repolarization in FR-beta expressing IL-4 differentiated M2 phenotype mouse BMDM cells assessed as reprogramming to M1 phenotype by measuring TNF-alpha level at 10 nM incubated for 24 hrs by ELISA; assay type: functional, cell-based
[15] = test system: BMDM; assay: Induction of macrophage repolarization in FR-beta expressing IL-4 differentiated M2 phenotype mouse BMDM cells assessed as reprogramming to M1 phenotype by measuring upregulation of IL-6 mRNA expression at 10 nM incubated for 24 hrs by RT-qPCR analysis; assay type: functional, cell-based
[16] = Toxicity against BALB/c mouse assessed as increase in TNF-alpha level in plasma at 20 ug, iv measured after 2 hrs by ELISA; assay type: organism-based; conditions: in vivo, dose 20 µg
[17] = test system: Mus musculus; assay: In vivo repolarization of macrophages from M2 phenotype to M1 phenotype in BALB/c mouse xenografted with mouse 4T1 cells assessed as increase in M1 (F4/80+CD11b+CD86+) to M2 (F4/80+CD11b+CD206+) macrophage ratio in tumor at 0.333 mg/kg, iv qd for 14 days by flow cytometry; assay type: functional, organism-based; conditions: time 14.0 day
[18] = test system: BMDM; assay: Induction of macrophage repolarization in FR-beta expressing IL-4 differentiated M2 phenotype mouse BMDM cells assessed as reprogramming to M1 phenotype by measuring downregulation of IL-10 mRNA expression at 10 nM incubated for 24 hrs by RT-qPCR analysis; assay type: functional, cell-based
[19] = test system: 4T1; assay: Cytotoxicity against mouse 4T1 cells assessed as reduction in cell viability at >10 uM incubated for 24 hrs by CCK-8 assay; assay type: toxicity, cell-based; conditions: 4t1, 24 h
[20] = test system: BMDM; assay: Induction of macrophage repolarization in FR-beta expressing IL-4 differentiated M2 phenotype mouse BMDM cells assessed as reprogramming to M1 phenotype by measuring downregulation of CD206 mRNA expression at 10 nM incubated for 24 hrs by RT-qPCR analysis; assay type: functional, cell-based
[21] = test system: BMDM; assay: Induction of macrophage repolarization in FR-beta expressing IL-4 differentiated M2 phenotype mouse BMDM cells assessed as reprogramming to M1 phenotype by measuring downregulation of IL-10 level at 10 nM incubated for 24 hrs by ELISA; assay type: functional, cell-based
[22] = test system: BMDM; assay: Induction of macrophage repolarization in FR-beta expressing IL-4 differentiated M2 phenotype mouse BMDM cells assessed as reprogramming to M1 phenotype by measuring upregulation of TLR7 mRNA expression at 10 nM incubated for 24 hrs by RT-qPCR analysis; assay type: functional, cell-based
[23] = test system: 4T1; assay: Antitumor activity against mouse 4T1 cells xenografted in BALB/c mouse assessed as inhibition of tumor growth at 0.333 mg/kg, iv qd for 14 days and measured every day by digital caliper analysis; assay type: functional, organism-based; conditions: time 14.0 day
[24] = test system: BMDM; assay: Induction of macrophage repolarization in FR-beta expressing IL-4 differentiated M2 phenotype mouse BMDM cells assessed as reprogramming to M1 phenotype by measuring upregulation of MyD88 expression at 10 nM incubated for 24 hrs by western blot analysis; assay type: functional, cell-based
[25] = test system: BMDM; assay: Induction of macrophage repolarization in FR-beta expressing IL-4 differentiated M2 phenotype mouse BMDM cells assessed as reprogramming to M1 phenotype by measuring downregulation of Arg1 mRNA expression at 10 nM incubated for 24 hrs by RT-qPCR analysis; assay type: functional, cell-based
[26] = Stability of the compound in mouse plasma at 5 uM and measured at 37 degC and for up to 12 hrs by HPLC analysis; assay type: ADME, cell-free; conditions: read-out: Stability
[27] = Prodrug release assessed as IMDQ-SH formation in presence of 10 mM GSH and measured within 1 hr by HPLC analysis; assay type: ADME
[28] = Toxicity against BALB/c mouse xenografted with mouse 4T1 cells assessed as effect on body weight at 1 mg/kg, iv qd for 14 days and measured every day; assay type: organism-based; conditions: in vivo, 336 h, time 14 day
[29] = Toxicity against BALB/c mouse xenografted with mouse 4T1 cells assessed as pathological changes in kidney at 1 mg/kg, iv qd for 14 days by Hematoxylin-Eosin staining based analysis; assay type: organism-based; conditions: in vivo, 336 h, time 14 day
[30] = Toxicity against BALB/c mouse xenografted with mouse 4T1 cells assessed as pathological changes in spleen at 1 mg/kg, iv qd for 14 days by Hematoxylin-Eosin staining based analysis; assay type: organism-based; conditions: in vivo, 336 h, time 14 day
[31] = Cytotoxicity against mouse BMDM cells assessed as reduction in cell viability incubated for 24 hrs by CCK-8 assay; assay type: toxicity, cell-based
[32] = test system: HUVEC; assay: Cytotoxicity against human HUVEC cells assessed as reduction in cell viability incubated for 24 hrs by CCK-8 assay; assay type: toxicity, cell-based
[33] = test system: Mus musculus; assay: In vivo repolarization of macrophages from M2 phenotype to M1 phenotype in BALB/c mouse xenografted with mouse 4T1 cells assessed as increase in M1 (F4/80+CD11b+CD86+) to M2 (F4/80+CD11b+CD206+) macrophage ratio in tumor at 1 mg/kg, iv qd for 14 days by flow cytometry; assay type: functional, organism-based; conditions: time 14.0 day
[34] = Stability of the compound in PBS measured at 4 degC and for 15 days; assay type: physicochemical; conditions: time 15 day, read-out: Stability
[35] = test system: 4T1; assay: Antitumor activity against mouse 4T1 cells xenografted in BALB/c mouse assessed as inhibition of tumor growth at 1 mg/kg, iv qd for 14 days and measured every day by digital caliper analysis; assay type: functional, organism-based; conditions: time 14.0 day
[36] = Toxicity against BALB/c mouse xenografted with mouse 4T1 cells assessed as pathological changes in heart at 1 mg/kg, iv qd for 14 days by Hematoxylin-Eosin staining based analysis; assay type: organism-based; conditions: in vivo, 336 h, time 14 day
[37] = test system: 4T1; assay: Antitumor activity against mouse 4T1 cells xenografted in BALB/c mouse assessed as lifespan of animal's survival at 1 mg/kg, iv qd for 14 days; assay type: functional; conditions: time 14 day
[38] = Toxicity against BALB/c mouse xenografted with mouse 4T1 cells assessed as pathological changes in liver at 1 mg/kg, iv qd for 14 days by Hematoxylin-Eosin staining based analysis; assay type: organism-based; conditions: in vivo, 336 h, time 14 day
[39] = Prodrug release assessed as IMDQ formation in presence of 10 mM GSH and measured after 1 to 8 hrs by HPLC analysis; assay type: ADME; conditions: time 1-8 hrs
[40] = test system: Mus musculus; assay: In vivo transition from anti-inflammatory to pro-inflammatory phenotypes in BALB/c mouse xenografted with mouse 4T1 cells assessed as decrease in proportion of Ly6C+ and Ly6G+ cells within CD45+ population at 1 mg/kg, iv qd for 14 days by flow cytometry; assay type: functional, organism-based; conditions: time 14.0 day
[41] = Toxicity against BALB/c mouse xenografted with mouse 4T1 cells assessed as heightened inflammatory response in lung at 1 mg/kg, iv qd for 14 days by Hematoxylin-Eosin staining based analysis; assay type: organism-based; conditions: in vivo, 336 h, time 14 day
[42] = test system: Mus musculus; assay: In vivo transition from anti-inflammatory to pro-inflammatory phenotypes in BALB/c mouse xenografted with mouse 4T1 cells assessed as upregulation in proportion of CD8+ cells at 1 mg/kg, iv qd for 14 days by flow cytometry; assay type: functional, organism-based; conditions: time 14.0 day
[43] = test system: 4T1; assay: Cytotoxicity against mouse 4T1 cells assessed as reduction in cell viability incubated for 24 hrs by CCK-8 assay; assay type: toxicity, cell-based; conditions: 4t1, 24 h
[44] = test system: Mus musculus; assay: In vivo transition from anti-inflammatory to pro-inflammatory phenotypes in BALB/c mouse xenografted with mouse 4T1 cells assessed as CD4+ cells population at 1 mg/kg, iv qd for 14 days by flow cytometry; assay type: functional, organism-based; conditions: time 14.0 day

Structure (SMILES)	Activity [2]	Activity [3]	Activity [4]	Activity [7]	Activity [8]	Activity [9]	Activity [10]	Activity [12]	Activity [14]	Activity [15]	Activity [16]	Activity [18]	Activity [20]	Activity [21]	Activity [22]	Activity [24]	Activity [25]	further results
CCCCc1nc2c(N)nc3ccccc3c2n1Cc1ccc(CN)cc1	Active	Active	Active	Active	Active	Active	Toxic	inactive	inactive	Active	Toxic	Active	Active	Active	Active	Active	Active	Activity [1]: Toxic; Activity [5]: Toxic; Activity [6]: Toxic; Survival [11]: 27 days; Activity [13]: Toxic; Activity [17]: inactive; Activity [19]: Toxic; Activity [23]: Active; Diminished Antitumor Efficacy Compared To Fgt-1 To 4 Observed
CCCCc1nc2c(N)nc3ccccc3c2n1Cc1ccc(CNC(=O)OCCSSC[C@H](NC(=O)CC[C@H](NC(=O)c2ccc(CCCCc3cc4c(=O)[nH]c(N)nc4[nH]3)cc2)C(=O)O)C(=O)O)cc1	Active; More Pronounced Effect Compared To Fgt-2,3 Observed	Active	Active; More Pronounced Effect Compared To Fgt-2 Observed	Active; More Pronounced Effect Compared To Fgt-2,3 Observed	Active; More Pronounced Effect Compared To Fgt-2,3 Observed	Active; More Pronounced Effect Compared To Fgt-2,3 Observed	Non-toxic	inactive	inactive	Active; More Pronounced Effect Compared To Fgt-2 Observed	Non-toxic	Active; More Pronounced Effect Compared To Fgt-2 Observed	Active; More Pronounced Effect Compared To Fgt-2,3 Observed	Active; More Pronounced Effect Compared To Fgt-2 Observed	Active	Active	Active; More Pronounced Effect Compared To Fgt-2,3 Observed	remaining at 12 h, 5 µM [26]: 95%; Drug metabolism [27]: metabolite_detected; Activity [28]: Non-toxic; Activity [29]: Non-toxic; Activity [30]: Non-toxic; Activity [31]: Non-toxic; Activity [32]: Non-toxic; Activity [33]: Active; remaining at 360 h [34]: > 95%; Activity [35]: Active; Most Pronounced Effect Compared To Fgt-1,2,3 Observed; Activity [36]: Non-toxic; Survival [37]: 35 days; Activity [38]: Non-toxic; Drug metabolism [39]: metabolite_detected; Activity [40]: Active; Activity [41]: Non-toxic; Activity [42]: Active; Activity [43]: Non-toxic; Activity [44]: inactive

Reference: ChEMBL document CHEMBL6134867, “Design and Synthesis of FR-β Targeting Chimeric Molecules for Reprogramming Tumor-Associated Macrophages Using 6-Substituted Pyrrolo[2,3-d]pyrimidines as Targeting Ligands” (J Med Chem, 2025)
